Experiments:
[1] = biological target: T1, recombinant full length APE1 (Homo sapiens, UniProt P27695); test: Cleavage of recombinant full length APE1, Western blot
T1 construct: the full length APE1 protein was successfully expressed and purified; made in house; host or cells: E. coli BL21/DE3
Description: (§1) Total purified protein concentration was determined by the ratio of A280/A260. 250 ng of APE1 treated with lucanthone or hycanthone (0.05–100 µM) for 2 h at 37°C in final volume of 30 µl were mixed with an equal volume of gel loading buffer (0.001% bromophenol blue, 4% SDS, 10% 2-ME, 20% glycerol, and 125 mM Tris pH 6.8) and denatured at 95°C for 5 min. Total protein concentration in cell extracts was determined using the Bradford assay (BioRad, Hercules, CA) and 25 µg of total protein from soluble or insoluble cell fractions were mixed with an equal volume of gel loading buffer (0.001% bromophenol blue, 4% SDS, 10% 2-ME, 20% glycerol, and 125 mM Tris pH 6.8) and denatured at 95°C for 5 min. This mixture was separated by SDS-PAGE (4% stacking, 7.5% resolving gel) for 2–3 h at 40 mA on a BioRad MiniPROTEAN II Electrophoresis Cell. To detect proteins, proteins were transferred onto a trans-Blot nitrocellulose membrane (0.45 µm; BioRad) overnight at 4°C at 15 mA in standard Tris-Glycine buffer containing 20% ethanol. […] Chemi-luminescence was developed using an ECL kit according to the manufacturer's instructions and detected by exposing the blot to HyperfilmECL for 30 s–3 min. […]

[2] = biological target: T2, APE1 single mutants (F266A or W280S) (Homo sapiens, UniProt P27695, F266A); test: Endonuclease activity of APE1 hydrophobic site mutants with lucanthone; format: biochemical; settings: 100 µM lucanthone, 2 h, 37°C
T2 construct: made in house
Description: APE1 endonuclease activity was determined using an assay that measures the conversion of plasmid DNA from supercoiled to relaxed form by incision at an abasic site [35]–[36]. Briefly, the substrate used was 200 ng of depurinated pUC18 DNA in 10 µl of 1× APE1 buffer containing 50 mM Hepes, pH 7.4, 150 mM KCl, 5 mM MgCl2 and 100 µg/ml of BSA in presence of different concentrations of the cell extract (1 µl containing 0–55 ng of total protein). Similar reactions mixtures were set up with untreated pUC18, which served as the internal control. This reaction mixture was incubated at 37°C for 15 min, and the reaction was stopped by addition of alkaline stop mix (0.25% bromocresol green in 0.25N NaOH, 50% glycerol) and left at room temperature for 10–15 min. Then the products were resolved on a 0.8% agarose gel in 40 mM Tris-acetate and 2 mM EDTA for 2 h. The gel was stained with ethidium bromide to visualize supercoiled and relaxed plasmid DNA and imaged with a digital imaging system and the area under the supercoiled and relaxed form was determined. Final calculations were done in femtomoles (fmol) of abasic sites incised/min/mg protein with normalization done using Pyruvate Kinase units (PKU) present in these extracts. […] The endonuclease activity inhibition by lucanthone was analyzed using standard Lineweaver-Burke Plot to determine if the inhibition was competitive or non-competitive.

[3] = system: APE1 mutants F266A, F266C, F266A/W280A, D210N; test: Circular dichroism of APE1 mutant proteins with lucanthone; parameters: species or system human; settings: 140 µM lucanthone, 14 µM protein, 37°C, 60 min
Description: (§2) APE1 and its mutant proteins (10 mg/ml), 50 µl (500 µg) (14 µM) in APE1 buffer (50 mM HEPES, pH 7.4, 150 mM KCl, 5 mM MgCl2), were mixed with lucanthone/hycanthone (1 mg/ml), 50 µl (50 µg), 140 µM and incubated at 37°C for 60 min and far UV-CD spectra were recorded at NSLS U11 beam line at BNL. Lucanthone and hycanthone were also scanned as drug controls. The scanning parameters used were a 0.001 cm path length quartz cell, scanning wavelengths from 260 to 170 nm, bandwidth of 0.5 nm, digital integration time of 1 s, time constant of 200 ms, step size of 1 nm, and sensitivity of 200 µV. The data were corrected with blank subtraction from APE1 buffer alone. The secondary structure for APE1 with or without lucanthone or hycanthone was analyzed using CDSSTR program DICHROWEB [38].

[4] = biological target: T3, APE1 mutants F266A, F266C, F266A/W280A, D210N (Homo sapiens, UniProt P27695, F266A/W280A); test: as above; settings: 140 µM lucanthone, 14 µM protein, 37°C, 60 min
T3 construct: made in house
Description: as §2

APE1 = APE1 (Homo sapiens, UniProt P27695); test: APE1 cleavage in whole cell extracts of U251 1-5 APE1 overexpressor clone, Western blot with protease inhibitor cocktail; parameters: the full length APE1 protein was successfully expressed and purified; made in house; host or cells: E. coli BL21/DE3; settings: U251 1-5 whole cell extracts, 2 h, 37°C
Description: as §1

tubulin = test: Tubulin stability in U251 1-5 whole cell extracts, Western blot; settings: lucanthone 2.5-100 µM; CRT at 200 µM
Description: as §1

T1 sequence (P27695 whole entry): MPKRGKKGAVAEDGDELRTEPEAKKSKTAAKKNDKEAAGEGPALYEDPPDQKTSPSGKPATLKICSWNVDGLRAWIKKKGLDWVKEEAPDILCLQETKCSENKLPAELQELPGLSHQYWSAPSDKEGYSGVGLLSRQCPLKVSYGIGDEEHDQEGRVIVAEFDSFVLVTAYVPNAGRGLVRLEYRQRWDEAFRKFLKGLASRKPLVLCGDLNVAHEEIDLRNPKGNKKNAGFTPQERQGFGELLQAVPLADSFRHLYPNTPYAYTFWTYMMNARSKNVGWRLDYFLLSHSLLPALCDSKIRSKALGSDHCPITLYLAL
APE1, sequence (P27695 whole entry): as above
T2 sequence (P27695 2-318 F266A): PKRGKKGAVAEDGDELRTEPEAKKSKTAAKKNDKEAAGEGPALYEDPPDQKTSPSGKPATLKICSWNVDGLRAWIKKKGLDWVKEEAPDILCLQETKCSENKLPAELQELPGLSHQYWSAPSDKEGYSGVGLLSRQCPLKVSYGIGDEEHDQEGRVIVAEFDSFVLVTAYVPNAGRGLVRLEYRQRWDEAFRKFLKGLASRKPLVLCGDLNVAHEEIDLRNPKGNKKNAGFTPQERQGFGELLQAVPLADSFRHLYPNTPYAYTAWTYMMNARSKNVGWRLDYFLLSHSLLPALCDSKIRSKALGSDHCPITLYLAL
T3 sequence (P27695 2-318 F266A/W280A): as the sequence (P27695 2-318 F266A) above, with W279A counted along it

## CCN(CC)CCNc1ccc(C)c2sc3ccccc3c(=O)c12 [lucanthone, 1-[2-diethylaminoethylamino]-4-methylthioxanthen-9-one]
[1]; 10 mM TRIS, 100 µM ascorbic acid or N-acetyl cysteine (purified APE1), 1% DMSO (cell extracts)
  Lucanthone-induced cleavage of APE1 in presence of radical quenchers: significantly inhibited
[1]; 10-50 µM, 37°C, 2 h
  Cleavage of recombinant APE1: increase in the formation of the 25 kDa fragment
[2]
  Inhibition of endonuclease activity of single mutants F266A or W280S: no inhibition was detected
[3]
  Conformational change of wild type and D210N active site mutant APE1 (CD): able to induce conformational changes
[4]
  Conformational change of double mutant F266A/W280A (CD): almost no conformational change
APE1
  Concentration causing cleavage of APE1: 50 µM
tubulin
  Effect on tubulin protein: unaffected
